Test results from patent publication US20160031909A1, “PORPHYRAZINE OPTICAL AND DUAL OPTICAL/ MR CONTRAST AND THERAPEUTIC AGENTS” (HOFFMAN/BARRETT, LLC, priority 2013, published 2016).
Several values for one entry are separate records, joined by “and”; a condition that tells them apart may be missing. Identical values can stand only once. Entries after “also recorded” stand apart in the source; their conditions may differ.

Tests used:
[1] = test system: MDA-MB-231 orthotopic breast tumor; assay: In vivo tumor MRI in orthotopic breast tumor model; design: species or system athymic nude mice
Procedure: Cu-Pz-Gd(III) was examined as a contrast agent in vivo in an orthotopic breast tumor model in athymic nude mice. MDA-MB-231 breast tumor cells expressing mCherry fluorescent protein were implanted in the mammary fat pad of mice and tumors were allowed to grow to about 5 mm in diameter at which time mice were treated with 450 nmol (50 mg/kg) Cu-Pz-Gd(III) together with saline treated control mice (FIG. 3A).
In a separate experiment focusing only on short time points (0-225 min), groups of mice (n=3) were treated with Cu-Pz-Gd(III) (450 nmol, 50 mg/kg), DOTA-Gd(I I I) (900 nmol, 25 mg/kg), and saline as a negative control (FIG. 4). Mice were imaged continuously after tail vein injections. […] Regions of interest (ROIs) were defined outside the periphery of tumors, at the inner rim, and at the center.
MDA-MB-231 cells (1×10^6) expressing mCherry fluorescent protein were inoculated subcutaneously (1:1 v/v matrigel:PBS) on the right mammary fat pad. Cells were maintained in DMEM media supplemented with 10% FBS prior to inoculation. The athymic nude mice, Crl:NU(NCr)-Foxnl^nm, were purchased from Charles River, Portage at 5-6 weeks old and 16-18 gram were allowed to acclimate for 5 days. One week post inoculation, each animal was screened for mCherry fluorescence wavelength using the IVIS small animal fluorescence imaging system to verify presence of the tumor.
Mice were anesthetized in an induction chamber with 3% inhaled isoflurane in oxygen, then transferred to an imaging bed with circulating warm water heating system, MRI compatible respiratory monitoring (SA Instruments, Stony Brook, N.Y.) and 1-2% isoflurane delivered via nosecone to maintain a surgical plane of anesthesia with respiratory rate at 90-100 breaths/min Mice were imaged prone with the tumor centered in a 40 mm diameter quadrature volume coil (Bruker Biospec, Billerica, Mass.). An AutoPac automated positioning system was used to reproducibly center the animals in the MRI system.
Mice were positioned in the MRI scanner as described above and localizer images were acquired. T1 maps were acquired using a FAIR-RARE non-selective inversion recovery sequence with static TR (18,000 ms) and TE (6.1 ms), and variable TI (30.5, 100, 200, 300, 500, 600, 700, 800, 900, 1000, 1100, 1200, 1300, 1400, 1600, 2000, 2500, 3000, 3500, 4000, 4500, 5000, and 6000 ms). Imaging parameters were as follows: field of view (FOV)=40×20 mm^2, matrix size(MTX)=512×133 pixels, number of slices=1, slice thickness=1.0 mm, and 1 average (total scan time=5 m 26 s).
Images were acquired at baseline, and 4, 24, and 48 hours after injection of 150 μL of imaging agent via the tail vein. One control animal was injected with saline; the remaining 9 animals were injected with 450 nmol Cu-Pz-Gd(III). Three animals were sacrificed after 4 hour, 24 hour, and 48 hour timepoints, respectively; the organs were collected for ICP-MS (described below) to measure biodistribution.
Mice were positioned in the MRI scanner as described above and localizer images were acquired. To improve signal to noise ratio, reduce respiratory artifacts, and increase tumor coverage, for this study we used a multi slice T1 map acquired using a variable repetition time saturation recovery sequence (RARE-VTR) with static TE (8.2 ms) and variable TR (175, 300, 600, 800, 1200, 2000, 4000 ms). Imaging parameters were as follows: FOV=10×7.5 mm, MTX=80×60, number of axial slices=5, slice thickness=1.0 mm, and 1 average (total scan time=6 min 48 sec). […]

MDA-MB-231 cells = assay: MR imaging of cell pellets at 9.4 T; format: cell-based
Procedure: To determine whether the cellular uptake and molecular relativity of Cu-Pz-Gd(III) provides an effective MR contrast agent, MDA-MB-231 breast tumor cells were treated with M-Pz-Gd(III) complexes (200 μM) and centrifuged into capillaries (about 1.0 mm diameter) prior to MR imaging. […] The amount of Gd(III) per cell was determined by ICP-MS for each pellet and, as expected, T1 is inversely proportional to Gd(III) content. (FIG. 2B).
9.4 T MR imaging and T1/T2 measurements were performed on a Bruker Biospec 9.4 T imaging spectrometer fitted with shielded gradient coils at 25° C. For cell pellets images, about 2.0×10^6 MDA-MB-231 cells were incubated in 25-cm^2 T-flasks with either Cu-Pz-Gd(III), Zn-Pz-Gd(III) or DOTA-Gd(III) (400 μM wrt Gd(III)) for 24 hours, rinsed with DPBS (3×5 mL/flask), and harvested with 500 μL, of a 0.25-vol % trypLE Express solution. […] The bottom sections of the flame-sealed pipets were then scored with a glass scribe, broken into small capillaries, then imaged using a RF RES 400 1H 089/038 quadrature transmit receive 23-mm volume coil (Bruker BioSpin, Billerica, Mass., USA).
Spin-lattice relaxation times (T1) were measured using a […] (RARE-VTR) T1-map pulse sequence, with static TE (10 ms) and variable TR (100, 200, 400, 500, 750, 1000, 2500, 5000, 7500, and 10000 ms) values. […]

“Cu[Pz(C19H28N8O7Gd)2]. Pz=18,21-bis(2-(1H-1,2,3-triazole-4-yl) ethoxy)-tris-[1,4-dioxino[g,l,q](2R,3R)-2,3-dimethoxy-2,3-dimethyll 25H,27H-benzo[b]porphyrazine; C19H28N8O7Gd=N-methyl-2-aminoacetamide-4,7,10-tris(carboxymethyl)-1,4,7,10-tetraazacyclododecylgadolinium(III)) [Cu-Pz-Gd(III)]” was tested, and the “tumor T1 over time” value ([1]; 0-225 min after tail vein injection, Cu-Pz-Gd(III) 450 nmol (50 mg/kg), DOTA-Gd(III) 900 nmol (25 mg/kg)) was “persistent; also recorded: becomes progressively shorter; also recorded: steady accumulation of Cu-Pz-Gd(III) in tumor tissue with greater accumulation in the necrotic core; also recorded: decrease in T1 is much more persistent”, the “MR contrast enhancement of tumors” value ([1]; 450 nmol (50 mg/kg), 4 hour timepoint) was “significant contrast enhancement” and the “time at which T1 of tumor center is roughly equivalent to the rim” value ([1]; 450 nmol, 50 mg/kg) was 135 min. The “average T1 of tumor regions” value ([1]; 50 mg/kg, relative to saline treated controls) was “decreased relative to saline-treated controls; also recorded: decreased relative to saline treated controls”, the “MR image intensity of cell pellets” value (MDA-MB-231 cells; MDA-MB-231, 200 μM, vs Zn-Pz-Gd(III), DOTA-Gd(III) or vehicle) was “significant increases in image intensity” and the “contrast to noise ratio (CNR)” value (MDA-MB-231 cells; MDA-MB-231 cell pellets, 200 μM complex (400 μM wrt Gd(III)), 24 hours, 9.4 T, 25° C.) was 9.336±0.335 and 9.336.
